How the values were obtained:
HT29-MTX-e12 cells [1] = test: Azide group expression in goblet cell-like cells, DBCO-Cy5.5 fluorescence imaging; format: cell-based; conditions: 100 μM, 24 hours; DBCO-Cy5.5 labeling
From the text: (§1) In order to evaluate the introduction of an azide group (—N3) (i.e., a functional group for bioorthogonal click chemistry) to the intestinal mucosa, HT29-MTX-e12 cells, which are goblet cell-like cells in vitro, were used. An azide group was introduced to the cell surface through glycan manipulation using tetraacetylated N-azidoacetyl-D-mannosamine (ManNAz) and tetraacetylated N-azidoacetyl-D-galactosamine (GalNAz), which are derivatives of mannosamine and galactosamine, which is a molecule used for mucosal formation. Specifically, HT29-MTX-e12 cells were cultured for 24 hours in DMEM medium containing 100 μM ManNAz or GalNAz. The azide group introduced was subjected to fluorescent labeling by culturing for 30 minutes in a medium containing 10 μM DBCO-Cy5.5, washed twice with physiological saline at 4° C., reacted with 20 μM Hoechst 33342 for 15 minutes, and then the cell nuclei were stained and observed.
In the case of introduction of an azide group into the intestinal mucosa, after introduction of an azide group into the HT29-MTX-e12 goblet cell-like cell line by the method of Example 2, the binding ability with DBCO-Cy5.5 was evaluated.

HT29-MTX-e12 cells [2] = test: Western blot analysis of azide group introduced into goblet cell-like cells; format: cell-based; conditions: various concentrations, 24 hours
Protocol: For quantitative evaluation of an azide group according to the precursor treatment concentration, HT29-MTX-e12 cells in 10 mL medium without sugar or containing various concentrations of GalNAz or ManNAz were inoculated onto 60 mm×15 mm polystyrene tissue culture plates at a density of 2×10^6 cells per plate, and cultured for 24 hours. The cells were obtained after washing with PBS (pH 7.4), lysed in a cell lysis solution (50 mM Tris, pH 7.2, 150 mM NaCl, 1% Triton X-100, 200 ng/mL phenylmethylsulfonyl fluoride) containing phosphatase inhibitor cocktail (St. Louis, Mo., USA), and 10 μL of phosphine-PEG-biotin (Waltham, Mass., Thermofisher Scientific) per 100 μL of the lysate was reacted at room temperature for 12 hours. Then, after subjecting the resultant to electrophoresis on 10% SDS polyacrylamide gel to be transferred to Immobilon P membrane (Millipore Corporation, Billerica, Mass., USA), treated with 1,000:1 diluted HRP-streptavidin (Waltham, Mass., Thermofisher Scientific) at room temperature for 2 hours, and confirmed by developing on Pierce™ECL Western blotting substrate (Waltham, Mass., Thermofisher Scientific).

HT29-MTX-e12 cells [3] = test: Binding of DBCO-Bac. to azide-introduced goblet cell-like cells (fluorescence images, flow cytometry); format: cell-based; conditions: for binding ability to DBCO-Bac. increase compared to the control group: cells treated with 100 μM precursor; for green fluorescence (distribution of DBCO-Bac. in the culture dish) compared to the control group: low-magnification fluorescence imaging
From the text: as §1
When DBCO-Bac. is treated on goblet cell-like cells into which an azide group has been introduced in Experimental Example 3, red fluorescence representing an azide group and green fluorescence representing DBCO-Bac. appear clearly as shown in FIG. 5A.

HT29-MTX-e12 cells [4] = test: Binding of DBCO-Bac. in 3-dimensional intestinal mucosal simulation model; format: cell-based; conditions: 100 μM precursor; 3D fluorescence image
Protocol: To evaluate the binding ability of DBCO-Bac. to the mucosa in a three-dimensional environment, mucosal formation of HT29-MTX-e12 cells was promoted through N-[N-(3,5-difluorophenacetyl)-L-alanyl]-S-phenylglycine t-butyl ester (DAPT) stimulation, and a 3D intestinal mucosal simulation model was prepared using the same. HT29-MTX-e12 cells were inoculated in DMEM medium and cultured for 24 hours, treated with 20 μM DAPT 4 times at intervals of once every 2 days, and from the second DAPT treatment, treated with the culture medium containing 100 μM GalNAz or ManNAz three times at intervals of once every two days. Then, the resultant was treated with DBCO-Bac. at a concentration of 5×10^8/mL.
Additionally, in order to evaluate the binding ability of DBCO-Bac. to the intestinal mucosa in a three-dimensional environment, a three-dimensional intestinal mucosal simulation model was prepared using HT29-MTX-e12 cells in which mucosal formation was promoted through DAPT stimulation by the method of Example 4 above.

mouse intestinal mucosa [5] = test: Azide group expression in mouse intestinal mucosa after oral administration (DBCO-Cy5.5 staining); format: in vivo, mice; conditions: 5 mg per animal, duodenum, jejunum, ileum, colon
Protocol: To confirm the expression level and expression time of an azide group in the intestinal mucosa, GalNAz or ManNAz was orally administered to mice, and the expression level of an azide group in the intestinal mucosa was evaluated through the binding ability with DBCO-Cy5.5. 5 mg of GalNAz or ManNAz was orally administered per animal, the intestinal tissue was divided into 4 parts (duodenum, jejunum, ileum, and colon) of the small intestine and extracted after 12 hours, 24 hours, 36 hours, and 48 hours at intervals of 12 hours, and dipped in 20 μM of each DBCO-Cy5.5 solution and stained.
In the case of introducing an azide group into the mouse intestinal mucosa, after oral administration of GalNAz or ManNAz to mice by the method of Example 5 above, the expression level of an azide group in the intestinal mucosa was evaluated through the binding ability with DBCO-Cy5.5.

mouse intestinal mucosa [6] = test: Bac. remaining in mouse intestinal mucosa after simultaneous treatment with two DBCO-modified bacterial groups; format: in vivo, mice; conditions: oral precursor, simultaneous treatment with both DBCO-modified bacteria
Protocol: In addition, in order to evaluate the intestinal mucosal binding ability of DBCO-Bac., GalNAz or ManNAz per animal was orally administered to 5 mg mice, and 24 hours thereafter, DBCO-Bac. was administered at a concentration of 10^9/mL.
In order to confirm whether bioorthogonal click chemistry of DBCO and an azide group is applicable when several groups of bacteria were administered at once as in probiotics, GalNAz and ManNAz were each orally administered to mice by the method of Example 5, and simultaneously treated with Bifidobacterium longum modified with DBCO and Lactobacillus acidophilus modified with DBCO, and the fluorescence value of Bac. remaining in the intestinal mucosa was confirmed.

Molecule	red fluorescence (azide group) in HT29-MTX-e12 cells (HT29-MTX-e12 cells [1])	generation of an azide group (HT29-MTX-e12 cells [2])	binding ability to DBCO-Bac. increase compared to the control group (HT29-MTX-e12 cells [3])	green fluorescence (distribution of DBCO-Bac. in the culture dish) compared to the control group (HT29-MTX-e12 cells [3])	green fluorescence (binding ability to DBCO-Bac.) compared to the control group (HT29-MTX-e12 cells [4])	time after oral administration at which fluorescence intensity (azide expression) was strongest (mouse intestinal mucosa [5])	amounts of DBCO-modified Bifidobacterium longum and Lactobacillus acidophilus remaining in the intestinal mucosa compared to the control group (mouse intestinal mucosa [6])
CC(=O)OCC1OC(OC(C)=O)C(NC(=O)CN=[N+]=[N-])[C@@H](OC(C)=O)[C@H]1OC(C)=O (stereo partly drawn) [GalNAz, tetraacetylated N-azidoacetyl-D-galactosamine]	red fluorescence appeared	increased depending on the concentration	about 400 times	increased	increased significantly	about 24 hours	higher
tetraacetylated N-azidoacetyl-D-mannosamine [ManNAz]	red fluorescence appeared	increased depending on the concentration	about 500 times	increased	increased significantly	about 24 hours	significantly higher

Reference: patent US20230201360A1, “Composition and Kit for colonization in gut of external probiotics through bioorthogonal click chemistry” (RESEARCH & BUSINESS FOUNDATION SUNGKYUNKWAN UNIVERSITY, priority 2021, published 2023)
